Measured values reported in US6075060A, “Trans olefinic diols with surfactant properties” (Air Products and Chemicals, Inc., priority 1998, dated 2000).
Values after ≈ are worked out from the molar mass of the structure shown.

Columns and labels:
[1] = Equilibrium surface tension by maximum-bubble-pressure method; format: physicochemical; conditions: for Equilibrium Surface Tension: 0.1 wt %, 23° C., 1 bubble/second, Table 2; for EST, trans olefin: 0.05 wt. %, Table 4; for EST of 0.1 wt % solution: cis and trans isomers, Table 7; for EST at Solubility Limit: trans isomers, Table 8
Description: The equilibrium surface tension is measured using the maximum-bubble-pressure method at 23° C. and 1 bubble/second. This method is described in Langmuir, Vol. 2 (1986), pp. 428-432. When measured at the solubility limit of the surfactant, an equilibrium surface tension of 40 dynes/cm or less is desired; preferably 35 dynes/cm or less.
The equilibrium surface tension was measured using the maximum-bubble-pressure method at 23° C. and 1 bubble/second at 0.1 wt %. The results, presented in Table 2, indicate that olefinic diols with 10 or less carbons are poor surfactants and the cis isomer has slightly better equilibrium surface tension than the trans isomer.
The equilibrium surface tension of the compounds of Examples 3, 4 and 5 was measured 0.05 wt. %.

[2] = Water solubility (solubility limit); format: physicochemical; conditions: for solubility: water

Compound	EST of 0.1 wt % solution [1] [dynes/cm]	solubility ([2]; cis and trans isomers, Table 7) [µg/mL]	also measured
CCC(C)(O)/C=C\C(C)(O)CC (stereo not drawn) [Example 2 cis]	–	–	Equilibrium Surface Tension [1]: 51 dynes/cm
CCC(C)(O)/C=C/C(C)(O)CC (stereo not drawn) [Example 2 trans]	–	–	Equilibrium Surface Tension [1]: 59 dynes/cm
CCCCCCC(C)(O)/C=C/C(C)(O)CCCCCC (centres unmarked) [Example 3]	–	–	EST, trans olefin [1]: 67 DYNES/CM
CC(O)(/C=C/C(C)(O)c1ccccc1)c1ccccc1 (centres unmarked) [Example 4]	–	–	EST, trans olefin [1]: 67 DYNES/CM
CCCCC(O)(/C=C/C(O)(CCCC)CCCC)CCCC [Example 5]	–	–	EST, trans olefin [1]: 69 DYNES/CM
CCC(O)(/C=C\C(O)(CC)CC)CC [Example 6 cis, 3,6-diethyl-4-octene-3,6-diol]	54	100 (≈ 499 µM)	–
CCC(O)(/C=C/C(O)(CC)CC)CC [Example 6 trans, 3,6-diethyl-4-octene-3,6-diol]	50	5000 (≈ 25000 µM)	–
CC(C)CC(C)(O)/C=C\C(C)(O)CC(C)C (stereo not drawn) [Example 7 cis, 2,4,7,9-tetramethyl-5-decene-4,7-diol]	58	< 100	–
CC(C)CC(C)(O)/C=C/C(C)(O)CC(C)C (stereo not drawn) [Example 7 trans, 2,4,7,9-tetramethyl-5-decene-4,7-diol]	34	2000 (≈ 8760 µM)	EST at Solubility Limit [1]: 29 dynes/cm; Solubility Limit ([2]; trans isomers, Table 8): 0.2 wt % in water
CC(C)CCC(C)(O)/C=C\C(C)(O)CCC(C)C (stereo not drawn) [Example 8 cis, 2,5,8,11-tetramethyl-6-dodecene-5,8-diol]	68	< 100	–
CC(C)CCC(C)(O)/C=C/C(C)(O)CCC(C)C (stereo not drawn) [Example 8 trans, 2,5,8,11-tetramethyl-6-dodecene-5,8-diol]	33	300 (≈ 1170 µM)	EST at Solubility Limit [1]: 33 dynes/cm; Solubility Limit ([2]; trans isomers, Table 8): 0.03 wt % in water
CCCCC(C)(O)/C=C/C(C)(O)CCCC (centres unmarked) [Example 9, 5,8-dimethyl-6-dodecene-5,8-diol]	–	–	EST at Solubility Limit [1]: 33 dynes/cm; solubility ([2]; trans isomers, Table 8): 1000 µg/mL (≈ 4380 µM)
